Laboratory results taken from PubChem BioAssay (NCI).
“And” between values parts separate entries of the source, which are not always exact repeats. Identical values can stand only once.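 Exposure lasted 48 hours, with cells grown in 96-well plates and compounds tested at five concentrations. GI50 is the concentration that inhibits growth by half. Definition used: TGI = concentration required for complete inhibition of growth.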

Experiments:
Assay in all cases: inhibition of tumour cell growth, NCI panel, 48 h
ACHN renal = test system: ACHN renal
786-0 renal = test system: 786-0 renal
RPMI-8226 leukemia = test system: RPMI-8226 leukemia
OVCAR-8 ovarian = test system: OVCAR-8 ovarian
OVCAR-3 ovarian = test system: OVCAR-3 ovarian
CCRF-CEM leukemia = test system: CCRF-CEM leukemia
SN12C renal = test system: SN12C renal
HL-60(TB) leukemia = test system: HL-60(TB) leukemia
IGROV1 ovarian = test system: IGROV1 ovarian
UACC-62 melanoma = test system: UACC-62 melanoma

Row | Compound | TGI (ACHN renal) | TGI (786-0 renal) [µM] | TGI (RPMI-8226 leukemia) | TGI (OVCAR-8 ovarian) | TGI (OVCAR-3 ovarian) | TGI (CCRF-CEM leukemia) [µM] | TGI (SN12C renal) | TGI (HL-60(TB) leukemia) | TGI (IGROV1 ovarian) | TGI (UACC-62 melanoma) | GI50 (ACHN renal) | GI50 (786-0 renal) | GI50 (RPMI-8226 leukemia) | GI50 (OVCAR-8 ovarian) | GI50 (OVCAR-3 ovarian) | GI50 (CCRF-CEM leukemia) | GI50 (SN12C renal) | GI50 (HL-60(TB) leukemia) | GI50 (IGROV1 ovarian) | GI50 (UACC-62 melanoma)
1 | CCCCCCCCCCCCCC(=O)CBr | 30.1 µM | 11.3 | 4.24 µM | 35.6 µM | 39.9 µM | 2.6 | 43.3 µM | 3.08 µM | 15.1 µM | 17.9 µM | – | – | – | – | – | – | – | – | – | –
2 | Cc1cc(=O)oc2cc3c(cc12)Oc1ccccc1O3 | > 100 µM | > 100 | > 100 µM | > 100 µM | > 100 µM | > 10 | > 100 µM | > 10 µM | > 100 µM | > 100 µM | – | – | – | – | – | – | – | – | – | –
3 | COc1ccc2c(c1)OC(N(C(C)=O)C(C)=O)=C(C#N)C2c1ccc(F)cc1 (configuration not stated) | > 100 µM | > 100 | 27.1 µM | > 100 µM | 7.5 µM | > 100 | > 100 µM | 2.53 µM | > 100 µM | > 100 µM | 4.18 µM | 3.52 µM | 3.18 µM | 3.92 µM | 0.676 µM | 2.13 µM | 6.48 µM | 0.496 µM | 2.82 µM | 0.632 µM
4 | COc1ccc2oc3cccc(NCCN(C)C)c3c(=O)c2c1 | 23.2 µM | 23.5 | 33 µM | 23.7 µM | 28.5 µM | 32.1 | 23.3 µM | 27.6 µM | 31.2 µM | 26.6 µM | – | – | – | – | – | – | – | – | – | –
5 | CC1C(=O)C(C)C(c2ccccc2)N(N=O)C1c1ccccc1 (configuration not stated) | 341 µM | 359 | > 1000 µM | > 946 µM | 685 µM | > 1000 | 981 µM | > 1000 µM | > 673 µM | > 655 µM | – | – | – | 353 µM | – | – | > 65.2 µM | – | 216 µM | –
6 | O=C(CSC(=S)N1CCOCC1)Nc1nc2c(s1)CCCC2 | > 100 µM | > 100 | > 100 µM | > 100 µM | > 100 µM | > 100 | > 100 µM | > 100 µM | > 100 µM | – | – | – | – | – | – | – | – | – | – | –
7 | COc1ccc2c3c(c(=O)n(C)c2c1OC)C=CC(C)(C)O3 | 27.5 µM | > 100 | 29.3 µM | > 100 µM | > 100 µM | 88.3 | 54.8 µM | 29.8 µM | > 100 µM | > 100 µM | – | – | – | – | – | – | – | – | – | –
8 | O=C1CC[C@@H](S(=O)(=O)c2ccccc2)[C@@H](/C=C/c2ccccc2)O1 | > 100 µM | > 100 | > 100 µM | > 100 µM | > 100 µM | > 100 | > 100 µM | > 100 µM | > 100 µM | > 100 µM | – | – | – | – | – | – | – | – | – | –
9 | COc1cc(/C=C/C(=O)c2sc(Nc3ccccc3)nc2C)ccc1O | > 100 µM | > 100 | > 100 µM | > 100 µM | > 100 µM | > 100 | > 100 µM | > 100 µM | > 100 µM | > 100 µM | – | – | – | – | – | – | – | – | – | –
10 | OCc1ccc(-c2nn(Cc3ccccc3)c3ccccc23)o1 | 91.9 µM and 39.8 µM | > 81.6 | 43.8 µM and 15.3 µM | 44.7 µM and 57 µM | 9.8 µM and 13.4 µM | > 95.9 | 35.5 µM and 33.7 µM | 40.5 µM and 58.3 µM | 22.5 µM and > 93.1 µM | 16.4 µM and > 44.4 µM | 19.8 µM and 16 µM | 24 µM and 4.69 µM | 14.3 µM and 3.15 µM | 16.3 µM and 20.7 µM | 1.35 µM and 1.71 µM | 24.3 µM and 25.5 µM | 15.9 µM and 15.1 µM | 15.6 µM and 19 µM | 0.508 µM and 0.288 µM | 0.52 µM and 3.41 µM
